{"source": "paper PMC7558535", "about": "“In Vitro Metabolism of DWP16001, a Novel Sodium-Glucose Cotransporter 2 Inhibitor, in Human and Animal Hepatocytes” (Pharmaceutics, 2020)", "key": {"[1]": {"settings": "cited from earlier work"}, "SGLT2": {"system": "SGLT2", "parameters": "method as in PMID 32183468", "settings": "read-out: IC50 (SGLT2 inhibition); cited from earlier work"}, "11 human CYP enzymes": {"system": "11 human CYP enzymes", "test": "CYP screening, whole panel", "format": "in vitro ADME", "description": "DWP16001, M1, or M2 was incubated with 11 human cDNA-expressed CYP enzymes (1A1, 1A2, 2A6, 2B6, 2C8, 2C9, 2C19, 2D6, 2E1, 3A4, and 3A5) to identify the CYP enzymes involved in the metabolism of DWP16001. Reaction mixtures of 95 µL containing DWP16001 (final concentration: 5 µM), M1 or M2 (final concentration: 10 µM), and CYPs (final amount: 10 pmol) were prepared in 0.1 M potassium phosphate buffer (pH 7.4). The reaction was started by adding 5 µL of NADPH-generating system; the mixtures were incubated for 30 min at 37 °C in triplicate. Reactions were stopped by the addition of 400 µL of ice-cold ketoconazole (internal standard, 200 ng/mL) in ice-cold acetonitrile. Samples were centrifuged at 15,000× g for 8 min at 4 °C. Seventy-five microliter aliquots of the supernatants were diluted with 75 µL of deionized water and analyzed using an LC–MS/MS system."}, "[2]": {"settings": "human, cited from earlier work"}, "[3]": {"settings": "human; cited from earlier work"}, "human hepatocytes": {"system": "human hepatocytes", "settings": "cited from earlier work"}, "13 human UGT enzymes": {"system": "13 human UGT enzymes", "test": "UGT screening, whole panel", "format": "in vitro ADME", "settings": "incubation of M1 with 13 human UGT enzymes and UDPGA", "description": "To screen for UGT enzymes responsible for glucuronidation of DWP16001, 100 μL of reaction mixtures containing 13 human cDNA-expressed UGT enzymes (1A1, 1A3, 1A4, 1A6, 1A7, 1A8, 1A9, 1A10, 2B4, 2B7, 2B10, 2B15, and 2B17) at 0.1 mg protein/mL, 5 mM UDPGA, 0.025 mg/mL alamethicin, and 25 μM DWP16001 or M1 in 50 mM Tris buffer (pH 7.4) were incubated at 37 °C for 30 min in triplicate. Reactions were stopped by adding 100 μL of ketoconazole (internal standard, 200 ng/mL) in acetonitrile, followed by vortex-mixing and centrifugation (15,000× g, 8 min, 4 °C). The supernatant (75 μL) was diluted with equal volume of 30% acetonitrile and aliquots (5 μL) were injected into an LC-MS/MS system."}}, "note": "Like-named read-outs stand apart in the source and are kept apart here."}
{"smiles": "Cc1ccc([C@@H]2O[C@H](CO)[C@@H](O)[C@H](O)[C@H]2O)cc1Cc1ccc(-c2ccc(F)cc2)s1", "note": "[canagliflozin]", "values": [{"measurement": "Drug interaction on co-administration", "setting": "[1]; glyburide, metformin, and simvastatin", "result": "did not cause significant drug interactions"}, {"measurement": "Increase of AUC", "setting": "[1]; human, cyclosporine A 400 mg", "result": 23, "unit": "%"}, {"measurement": "Increase of AUC", "setting": "[1]; human, probenecid 500 mg twice per day for 3 days", "result": 20.7, "unit": "%"}, {"measurement": "Decrease of AUC", "setting": "[1]; human, repeated rifampin 600 mg/day for 8 days", "result": 48.7, "unit": "%"}]}
{"smiles": "OC[C@H]1O[C@@H](c2ccc(F)c(Cc3cc4ccccc4s3)c2)[C@H](O)[C@@H](O)[C@@H]1O", "note": "[ipragliflozin]", "values": [{"measurement": "IC50", "setting": "SGLT2", "result": "8.9 ± 1.7", "unit": "nM"}]}
{"smiles": "OC[C@H]1O[C@@H](c2cc(Cc3ccc(C4(O)CC4)cc3)c(Cl)c3c2CCO3)[C@H](O)[C@@H](O)[C@@H]1O", "note": "[M2, (2S,3R,4R,5S,6R)-2-(7-chloro-6-(4-(1-hydroxycyclopropyl)benzyl)-2,3-dihydrobenzofuran-4-yl)-6-(hydroxymethyl)tetrahydro-2H-pyran-3,4,5-triol]", "values": [{"measurement": "Formation of M5 from M2", "setting": "11 human CYP enzymes; incubation of M2 with 11 human CYP enzymes and NADPH", "result": "not detected"}]}
{"smiles": "CCOc1ccc(Cc2cc([C@@H]3O[C@H](CO)[C@@H](O)[C@H](O)[C@H]3O)ccc2Cl)cc1", "note": "[dapagliflozin]", "values": [{"measurement": "Increase of AUC", "setting": "[2]; pretreatment with mefenamic acid 250 mg every 6 h for 5 days", "result": 50, "unit": "%"}, {"measurement": "Decrease of AUC", "setting": "[2]; repeated rifampin 600 mg/day for 6 days", "result": 22, "unit": "%"}, {"measurement": "Share of oxidative metabolism (CYP2D6, CYP3A4, CYP2C9 etc.) in metabolism", "setting": "[3]", "result": "less than 10%"}, {"measurement": "Hepatic extraction", "setting": "human hepatocytes", "result": "low"}]}
{"smiles": "OC[C@H]1O[C@@H](c2cc(Cc3ccc(C4CC4)cc3)c(Cl)c3c2CC(O)O3)[C@H](O)[C@@H](O)[C@@H]1O", "note": "(stereo partly drawn) [M1, (2S,3R,4R,5S,6R)-2-(7-chloro-6-(4-cyclopropylbenzyl)-2-hydroxy-2,3-dihydrobenzofuran-4-yl)-6-(hydroxymethyl)tetrahydro-2H-pyran-3,4,5-triol]", "values": [{"measurement": "Formation of M4 from M1", "setting": "11 human CYP enzymes; incubation of M1 with 11 human CYP enzymes and NADPH", "result": "not detected"}, {"measurement": "Formation of M1 glucuronides U4 and U5 from M1", "setting": "13 human UGT enzymes", "result": "not formed"}]}
